Measured values reported in ChEMBL document CHEMBL5579900, “Enhanced Recognition Memory through Dual Modulation of Brain Carbonic Anhydrases and Cholinesterases” (J Med Chem, 2024).
Activity calls are given as the source filed them. The calls are words filed in the database; no cut-off is given here.

Tests used:
Cholinesterase = Cholinesterase (Equus caballus, UniProt P81908)
Description: Inhibition of equine serum BuChE by microplate reader based analysis

[1] = biological target: Carbonic anhydrase 4 (Homo sapiens) (UniProt P22748)
Description: Binding affinity to human carbonic anhydrase 4 assessed as activation constant by phenol red dye based stopped-flow method

Mus musculus [2] = assay: Improvement of social recognition memory in juvenile unfamiliar male C57Bl6 mouse assessed as reduction in exploration time at 0.1 nmol/uL, ICV administered post acquisition phase and measured after 48 hrs at retention test phase; type: functional, organism-based
[3] = biological target: Carbonic anhydrase 1 (Homo sapiens) (UniProt P00915)
Carbonic anhydrase 1 (Homo sapiens), sequence (P00915 2-261 limits assumed): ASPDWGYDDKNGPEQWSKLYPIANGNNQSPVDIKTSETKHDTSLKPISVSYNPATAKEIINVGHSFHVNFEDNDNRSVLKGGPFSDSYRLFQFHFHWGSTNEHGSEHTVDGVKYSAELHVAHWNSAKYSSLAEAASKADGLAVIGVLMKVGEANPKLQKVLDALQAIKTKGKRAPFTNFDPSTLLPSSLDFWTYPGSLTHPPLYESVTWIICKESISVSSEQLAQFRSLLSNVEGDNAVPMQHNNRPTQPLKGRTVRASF
Description: Binding affinity to human carbonic anhydrase 1 assessed as activation constant by phenol red dye based stopped-flow method

Mus musculus [4] = assay: Improvement of social recognition memory in juvenile unfamiliar male C57Bl6 mouse assessed as reduction in exploration time by measuring discrimination index at 0.1 nmol/uL, ICV administered post acquisition phase and measured after 48 hrs at retention test phase; type: functional, organism-based
Mus musculus [5] = assay: Improvement of social recognition memory in juvenile familiar male C57Bl6 mouse assessed as reduction in exploration time by measuring discrimination index at 0.1 nmol/uL, ICV administered post acquisition phase and measured after 48 hrs at retention test phase; type: functional, organism-based
[6] = biological target: Carbonic anhydrase 2 (Homo sapiens) (UniProt P00918)
Description: Binding affinity to human carbonic anhydrase 2 assessed as activation constant by phenol red dye based stopped-flow method

[7] = biological target: Carbonic anhydrase 5B, mitochondrial (Homo sapiens) (UniProt Q9Y2D0)
Carbonic anhydrase 5B, mitochondrial (Homo sapiens), sequence (Q9Y2D0 whole entry): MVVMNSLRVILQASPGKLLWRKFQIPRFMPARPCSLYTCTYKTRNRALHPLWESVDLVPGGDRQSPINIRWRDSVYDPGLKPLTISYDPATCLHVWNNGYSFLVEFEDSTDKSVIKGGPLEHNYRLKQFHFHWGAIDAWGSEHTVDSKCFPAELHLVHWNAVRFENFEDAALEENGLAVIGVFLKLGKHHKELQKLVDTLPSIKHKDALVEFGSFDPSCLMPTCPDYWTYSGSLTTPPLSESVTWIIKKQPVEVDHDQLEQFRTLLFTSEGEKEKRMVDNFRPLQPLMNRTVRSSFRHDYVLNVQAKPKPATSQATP
Description: Binding affinity to human carbonic anhydrase 5B assessed as activation constant by phenol red dye based stopped-flow method

Mus musculus [8] = assay: Improvement of social recognition memory in juvenile familiar male C57Bl6 mouse assessed as reduction in exploration time at 0.1 nmol/uL, ICV administered post acquisition phase and measured after 48 hrs at retention test phase; type: functional, organism-based
[9] = biological target: Carbonic anhydrase 7 (Homo sapiens) (UniProt P43166)
Carbonic anhydrase 7 (Homo sapiens), sequence (P43166 whole entry): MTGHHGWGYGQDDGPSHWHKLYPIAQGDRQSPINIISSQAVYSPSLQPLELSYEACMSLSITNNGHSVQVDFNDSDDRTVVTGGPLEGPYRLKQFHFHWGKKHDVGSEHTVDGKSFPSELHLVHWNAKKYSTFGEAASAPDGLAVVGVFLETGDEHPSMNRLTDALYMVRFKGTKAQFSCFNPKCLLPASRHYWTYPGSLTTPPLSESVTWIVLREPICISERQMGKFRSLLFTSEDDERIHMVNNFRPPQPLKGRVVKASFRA
Description: Binding affinity to human carbonic anhydrase 7 assessed as activation constant by phenol red dye based stopped-flow method

Acetylcholinesterase = Acetylcholinesterase (Electrophorus electricus, UniProt O42275)
Acetylcholinesterase, sequence (O42275 whole entry): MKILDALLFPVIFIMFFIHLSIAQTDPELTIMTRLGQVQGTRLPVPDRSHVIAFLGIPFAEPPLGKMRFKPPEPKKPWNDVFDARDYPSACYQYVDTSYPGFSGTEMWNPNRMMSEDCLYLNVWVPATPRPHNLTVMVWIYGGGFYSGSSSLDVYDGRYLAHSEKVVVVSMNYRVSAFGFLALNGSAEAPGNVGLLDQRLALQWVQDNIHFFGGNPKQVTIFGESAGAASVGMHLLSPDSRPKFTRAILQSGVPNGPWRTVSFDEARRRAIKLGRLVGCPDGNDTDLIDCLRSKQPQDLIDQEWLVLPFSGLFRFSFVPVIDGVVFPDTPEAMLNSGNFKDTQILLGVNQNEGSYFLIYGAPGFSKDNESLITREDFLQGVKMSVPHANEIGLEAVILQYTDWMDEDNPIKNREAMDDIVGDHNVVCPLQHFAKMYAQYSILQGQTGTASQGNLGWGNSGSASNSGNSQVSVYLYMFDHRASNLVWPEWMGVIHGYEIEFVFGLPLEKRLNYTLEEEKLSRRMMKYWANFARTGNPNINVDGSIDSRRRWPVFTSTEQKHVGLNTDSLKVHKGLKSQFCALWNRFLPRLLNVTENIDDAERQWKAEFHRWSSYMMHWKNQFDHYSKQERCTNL
Description: Inhibition of electric eel AChE by microplate reader based analysis

Mus musculus [10] = assay: Improvement of social recognition memory in juvenile familiar male C57Bl6 mouse assessed as reduction in exploration time at 0.5 to 25 nmol/uL, ICV administered post acquisition phase and measured after 48 hrs at retention test phase; type: functional, organism-based; conditions: dose 0.5-25 nmol/uL
Mus musculus [11] = assay: Improvement of social recognition memory in juvenile unfamiliar male C57Bl6 mouse assessed as reduction in exploration time at 0.5 to 25 nmol/uL, ICV administered post acquisition phase and measured after 48 hrs at retention test phase; type: functional, organism-based; conditions: dose 0.5-25 nmol/uL
Mus musculus [12] = assay: Improvement of social recognition memory in juvenile familiar male C57Bl6 mouse assessed as reduction in exploration time at 0.5 nmol/uL, ICV administered post acquisition phase and measured after 48 hrs at retention test phase; type: functional, organism-based
Mus musculus [13] = assay: Improvement of social recognition memory in juvenile familiar male C57Bl6 mouse assessed as reduction in exploration time by measuring discrimination index at 0.5 nmol/uL, ICV administered post acquisition phase and measured after 48 hrs at retention test phase; type: functional, organism-based
Mus musculus [14] = assay: Improvement of social recognition memory in juvenile unfamiliar male C57Bl6 mouse assessed as reduction in exploration time by measuring discrimination index at 0.5 nmol/uL, ICV administered post acquisition phase and measured after 48 hrs at retention test phase; type: functional, organism-based
Mus musculus [15] = assay: Improvement of social recognition memory in juvenile unfamiliar male C57Bl6 mouse assessed as reduction in exploration time at 0.5 nmol/uL, ICV administered post acquisition phase and measured after 48 hrs at retention test phase; type: functional, organism-based
Mus musculus [16] = assay: Improvement of social recognition memory in juvenile unfamiliar male C57Bl6 mouse assessed as reduction in exploration time at 25 nmol/uL, ICV administered post acquisition phase and measured after 48 hrs at retention test phase in presence of tacrine; type: functional, organism-based
Mus musculus [17] = assay: Improvement of social recognition memory in juvenile unfamiliar male C57Bl6 mouse assessed as reduction in exploration time at 5 nmol/uL, ICV administered post acquisition phase and measured after 48 hrs at retention test phase in presence of tacrine; type: functional, organism-based
Mus musculus [18] = assay: Improvement of social recognition memory in juvenile familiar male C57Bl6 mouse assessed as discrimination index at 25 nmol/uL, ICV administered post acquisition phase and measured after 48 hrs at retention test phase in presence of tacrine (reference value: -0.07+/-0.0124); type: functional
Mus musculus [19] = assay: Improvement of social recognition memory in juvenile familiar male C57Bl6 mouse assessed as reduction in exploration time at 5 nmol/uL, ICV administered post acquisition phase and measured after 48 hrs at retention test phase in presence of tacrine; type: functional, organism-based
Mus musculus [20] = assay: Improvement of social recognition memory in juvenile familiar male C57Bl6 mouse assessed as reduction in exploration time at 25 nmol/uL, ICV administered post acquisition phase and measured after 48 hrs at retention test phase in presence of tacrine; type: functional, organism-based
Mus musculus [21] = assay: Improvement of social recognition memory in juvenile familiar male C57Bl6 mouse assessed as discrimination index at 50 nmol/uL, ICV administered post acquisition phase and measured after 48 hrs at retention test phase (reference value: -0.07+/-0.0124); type: functional

Carbonic anhydrase 4 (Homo sapiens), sequence (P22748 whole entry): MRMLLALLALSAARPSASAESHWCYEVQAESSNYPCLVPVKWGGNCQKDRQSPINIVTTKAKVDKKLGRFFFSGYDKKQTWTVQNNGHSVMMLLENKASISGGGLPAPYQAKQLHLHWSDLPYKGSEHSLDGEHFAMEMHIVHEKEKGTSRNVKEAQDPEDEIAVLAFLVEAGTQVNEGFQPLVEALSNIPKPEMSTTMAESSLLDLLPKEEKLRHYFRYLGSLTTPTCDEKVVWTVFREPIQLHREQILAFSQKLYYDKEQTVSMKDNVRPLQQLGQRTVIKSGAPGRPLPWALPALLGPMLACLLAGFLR
Cholinesterase, sequence (P81908 whole entry): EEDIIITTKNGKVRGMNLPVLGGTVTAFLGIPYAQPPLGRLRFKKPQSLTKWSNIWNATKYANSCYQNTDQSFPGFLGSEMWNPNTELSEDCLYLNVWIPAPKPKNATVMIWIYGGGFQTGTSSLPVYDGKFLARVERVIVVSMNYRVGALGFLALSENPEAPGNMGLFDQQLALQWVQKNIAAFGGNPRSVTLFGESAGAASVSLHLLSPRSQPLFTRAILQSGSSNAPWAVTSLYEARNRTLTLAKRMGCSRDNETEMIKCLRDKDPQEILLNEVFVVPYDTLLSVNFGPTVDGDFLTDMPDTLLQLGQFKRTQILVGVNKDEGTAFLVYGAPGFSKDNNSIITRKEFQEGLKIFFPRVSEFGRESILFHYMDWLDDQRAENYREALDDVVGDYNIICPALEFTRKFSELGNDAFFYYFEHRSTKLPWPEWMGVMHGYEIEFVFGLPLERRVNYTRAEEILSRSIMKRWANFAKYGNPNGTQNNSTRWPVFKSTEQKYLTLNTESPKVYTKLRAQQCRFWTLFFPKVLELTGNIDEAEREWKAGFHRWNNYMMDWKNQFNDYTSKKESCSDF

SMILES | IC50 (Cholinesterase) [nM] | KA ([1]; filed as activator) [µM] | Activity (Mus musculus [2]) | KA ([3]; filed as activator) [nM] | Activity (Mus musculus [4]) | Activity (Mus musculus [5]) | KA ([6]; filed as activator) [nM] | KA ([7]; filed as activator) [µM] | Activity (Mus musculus [8]) | KA ([9]; filed as activator) [nM] | IC50 (Acetylcholinesterase) [nM] | Activity (Mus musculus [10]) | Activity (Mus musculus [11]) | other results
COC(=O)[C@H](Cc1c[nH]cn1)NCCCCCCNc1c2c(nc3ccccc13)CCCC2 | 4.2 | 0.918 | inactive | 266 | inactive | inactive | 76.9 | 0.893 | inactive | 98 | 72.1 | Active | Active | –
N[C@@H](Cc1ccccc1)C(=O)NCCCCCNc1c2c(nc3ccccc13)CCCC2 | 1.9 | 2.61 | inactive | 782 | inactive | inactive | 93.4 | 1.32 | inactive | 192 | 7.4 | Active | Active | –
N[C@@H](Cc1c[nH]cn1)C(=O)NCCCCCNc1c2c(nc3ccccc13)CCCC2 | 6.8 | 0.757 | inactive | 565 | inactive | inactive | 65.1 | 1.01 | inactive | 96.4 | 29.8 | Active | Active | –
N[C@@H](CCCCNC(=O)OCc1ccccc1)C(=O)NCCCNc1c2c(nc3ccccc13)CCCC2 | 0.3 | 8.52 | – | 2080 | – | – | 1200 | 4.95 | – | 3080 | 110 | – | – | Activity (Mus musculus [12]): inactive; Activity (Mus musculus [13]): inactive; Activity (Mus musculus [14]): inactive; Activity (Mus musculus [15]): inactive
N[C@H](Cc1ccccc1)C(=O)O [D-PHENYLALANINE] | – | – | – | – | – | – | – | – | – | – | – | – | – | Activity (Mus musculus [16]): Active; Activity (Mus musculus [17]): inactive; Activity_index (Mus musculus [18]): 0.205; Activity (Mus musculus [19]): inactive; Activity (Mus musculus [20]): Active; Activity_index (Mus musculus [21]): 0.373
COC(=O)[C@@H](N)Cc1ccc(OCCCCCCNc2c3c(nc4ccccc24)CCCC3)cc1 | 2.7 | 8.25 | – | 702 | – | – | 295 | 6.16 | – | 185 | 26.4 | – | – | –
CC(C)(C)OC(=O)N[C@@H](CCCCNC(=O)OCc1ccccc1)C(=O)NCCCCNc1c2c(nc3ccccc13)CCCC2 | 0.16 | – | – | – | – | – | – | – | – | – | 327 | – | – | KA [1]: > 50 µM; KA [3]: > 50000 nM; KA [6]: > 50000 nM; KA [7]: > 50 µM; KA [9]: > 50000 nM
CC(C)(C)OC(=O)N[C@@H](Cc1ccccc1)C(=O)NCCCNc1c2c(nc3ccccc13)CCCC2 | 0.16 | – | – | – | – | – | – | – | – | – | 202 | – | – | KA [1]: > 50 µM; KA [3]: > 50000 nM; KA [6]: > 50000 nM; KA [7]: > 50 µM; KA [9]: > 50000 nM
N[C@@H](Cc1ccccc1)C(=O)NCCCCCCNc1c2c(nc3ccccc13)CCCC2 | 2.7 | 4.78 | – | 481 | – | – | 157 | 4.64 | – | 160 | 78 | – | – | –
